Data taken from patent publication US20100261682A1, “Method and Means for the Treatment of Cachexia” (Bioneris AB, priority 2007, published 2010).

Key:
[1] = system: mice bearing the MAC16 tumour; experiment: Body weight change in cachectic mice bearing the MAC16 tumour treated with alpha-trinositol (Example 1); format: in vivo, NMRI mice
Description: Materials. Alpha-trinositol (1-D-Myo-inositol 1,2,6-triphosphate) was prepared according to U.S. Pat. No. 4,777,134. In a glass ampoule a stock solution was prepared by dissolving 1 g of alpha-trinositol in saline to a total volume of 10 ml. The stock solution was stored in a refrigerator for use within 24 hrs.
(§1) Animals. Pure strain male NMRI mice (average body weight 25 g) were transplanted with fragments of the MAC16 tumour subcutaneously into the flank by means of a trochar, selected from donor animals with established weight loss (Bibby M C et al., Characterization of transplantable adenocarcinoma in the mouse colon producing cachexia in the recipient animals. J Natl Cancer Inst 78 (1987) 539-546). Transplanted animals were given a rat and mouse breeding diet (Special Diet Services, Witham, UK) and water at lib. Weight loss was evident 10 to 12 days after tumour implantation. Just prior to the development of weight loss 24 animals were randomized into four groups (I-IV) of six animals each.
(§2) Administration of alpha-trinositol. A first experiment was started when the animals had lost about 5% of body weight. Aliquots (2.5 μl, Group I; 5 μl, Group II; 10 μl, Group III) of alpha-trinositol stock solution corresponding to doses of 10 mg/kg, 20 mg/kg, and 40 mg/kg for a 25 g animal were administered subcutaneously three times per day at 8.00, 12.00 and 16.00 hrs. The fourth group (Group IV; control) was given an intravenous injection of 10 μl of water. Body weight (FIG. 1), tumour volume (FIG. 2), and water and food intake were determined daily after the last injection.

MAC16 tumour = experiment: Tumour volume in MAC16 tumour-bearing mice treated with alpha-trinositol (Example 1); format: in vivo, NMRI mice; conditions: 10 mg/kg s.c. three times per day
Text: as §1, §2

[2] = system: PIF-induced chymotrypsin-like enzyme activity (proteasome) in C2C12 myotubes; experiment: PIF-induced chymotrypsin-like enzyme activity in C2C12 myotubes; format: cell-based, murine; conditions: AT 100 μM, 4.2 nM PIF
Text: (§3) Protein degradation induced by PIF is mediated through up-regulation of the ubiquitin-proteasome pathway (Tisdale et al., 2004, Br. J. Cancer). […] A hexanoyl ester of AT (lipid soluble AT) has been produced as a slow release form, after hydrolysis by esterase.

[3] = system: Angiotensin II induced chymotrypsin like activity in C2C12 myotubes; experiment: Angiotensin II induced chymotrypsin-like activity in C2C12 myotubes; format: cell-based, murine; conditions: AT 100 μM
Text: as §3

[4] = system: 20S proteasome α-subunits; experiment: Western blot of gastrocnemius muscle: 20S proteasome α-subunits; format: in vivo, NMRI mice; conditions: 40 mg/kg s.c., 3 times per day
Description: (§4) Administration of alpha-trinositol. Mice (n=6) bearing the MAC16 tumour were treated with AT (40 mg/kg) s.c., 3 times per day, for 5 days, while a control group received PBS. Protein synthesis and degradation were determined by the incorporation and release of L-[2,6-^3H]phenylalanine, as described in Smith et al., Cancer Res., 2005; 65:277-83. On the fourth day of treatment half of the group administered 0.4 mmol/L L-[2,6-^3H]phenylalanine in PBS (100 μl) by i.p. administration.
(§5) Western blot analysis Gastrocnemius muscle (10 mg) was homogenised in Phosphosafe™ Extraction Reagent (500 μl) and centrifuged at 15000 g for 15 min. Samples of the cytosolic proteins (5 μg) were loaded on either a 10% (mTOR, myosin, eIF4E and eIF4G) 12% (PKR, eIF2α and actin) or 15% (4E-BP1) sodium dodecylsulphate-polyacrylamide gel (SDS-PAGE) and electrophoresed at 180 V for approximately 1 h. The extent of phosphorylation of 4E-BP1, and the association of 4E-BP1 and eIF4G with eIF4E was determined by Western blotting when eIF4E was extracted from the muscle samples by m^7GTP-Sepharose 4B-affinity binding, as previously described Eley ey al., Biochem J., 2007; 407:113-20, by loading 20 μg of protein. […] Blots were scanned by a densitometer to quantify differences.

p42 = experiment: Western blot of gastrocnemius muscle: p42; format: in vivo, NMRI mice; conditions: 40 mg/kg s.c., 3 times per day
Description: as §4, §5

myosin = experiment: Western blot of gastrocnemius muscle: myosin; format: in vivo, NMRI mice; conditions: 40 mg/kg; treatment for 4 days; reduced by 90% in untreated tumour-bearing mice
Description: as §4, §5

PKR = experiment: Western blot of gastrocnemius muscle: phospho PKR/total PKR; format: in vivo, NMRI mice; conditions: 40 mg/kg; tumour-bearing animals
Description: as §4, §5

4E-BP1 = experiment: Western blot of gastrocnemius muscle: phosphorylation of 4E-BP1; format: in vivo, NMRI mice; conditions: 40 mg/kg; 60% reduction in untreated tumour-bearing animals
Description: as §4, §5

caspase 3 = experiment: Caspase 3 activity in gastrocnemius muscle; format: in vivo, NMRI mice; conditions: 40 mg/kg; still significantly higher than in non-tumour-bearing animals
Description: as §4
(§6) Determination of Caspase activity. The activity of caspase 3 was determined by the release of 7-amino-4-methylcoumarin (AMC) from the specific substrate AcDEVD-AMC in the presence or absence of the caspase 3 inhibitor AcDEVD-CHO. […] The supernatant (50 μg protein) was incubated with the caspase 3 substrate for 1 h and the increase in fluorescence due to AMC was determined at an excilation wavelength of 370 nm and an emission wavelength of 430 nm. […] The increase in fluorescence due to the release of 7-amino-4-trifluoro-methylcoumarin (AFC) was measured with an excitation wavelength of 400 nm and an emission of 505 nm.

caspase 8 = experiment: Caspase 8 activity in gastrocnemius muscle; format: in vivo, NMRI mice; conditions: 40 mg/kg; still significantly higher than in non-tumour-bearing animals
Description: as §4, §6

Q: Which “anti-cachexia effect (body weight)” value ([1]; 10 mg/kg s.c. three times per day) does the source give for `O=P(O)(O)O[C@@H]1[C@H](OP(=O)(O)O)[C@H](O)[C@@H](O)[C@H](O)[C@H]1OP(=O)(O)O` [alpha-trinositol, 1-D-Myo-inositol 1,2,6-triphosphate] here?
A: The value was “clear anti-cachexia effect”.

Q: What about the “relative weight loss versus control group” value ([1]; day 0 to day 5, AT group) of the same compound?
A: The value was “half of the control group”.

Q: And the body weight lost ([1]; day 0 to day 5, AT group, s.c. three times per day (FIG. 3: 3×40 mg/kg), control lost ~4.7 g)?
A: The body weight lost was about 2.3 g.

Q: And the body weight lost ([1]; day 1 (first day of treatment) to day 5, AT group, control lost 3.3 g)?
A: The body weight lost was 1.15 g.

Q: And the “weight loss as fraction of the control group” value ([1]; day 1 to day 5, AT group)?
A: The value was “⅓”.

Q: And the tumour inhibition (MAC16 tumour)?
A: Its tumour inhibition is “did not produce any statistically significant effect”.

Q: And the “effect on PIF-induced chymotrypsin-like enzyme activity” value [2]?
A: The value was “completely attenuated”.

Q: What about the “effect on Ang II-induced chymotrypsin-like enzyme activity” value [3] of the same compound?
A: Its value is “completely attenuated”.

Q: What about the “expression of the 20S proteasome α-subunits in gastrocnemius muscle” value [4] of the same compound?
A: Its value is “down-regulates”.

Q: And the “expression of p42 in gastrocnemius muscle” value (p42)?
A: Its value is “down-regulates”.

Q: What about the “myosin expression in gastrocnemius muscle” value (myosin) of the same compound?
A: Its value is “returned to values at the same level as in non-tumour animals”.

Q: What about the “expression of phospho PKR (ratio phosphoPKR/total PKR)” value (PKR) of the same compound?
A: Its value is “significant decrease”.

Q: And the “tumour-induced reduction in phosphorylation of 4E-BP1 (Thr37/46)” value (4E-BP1)?
A: The value was “completely attenuated”.

Q: What about the “activity of caspase-3 in gastrocnemius muscle” value (caspase 3) of the same compound?
A: The value was “significantly reduced”.

Q: And the “activity of caspase-8 in gastrocnemius muscle” value (caspase 8)?
A: The value was “significantly reduced”.
